In paper PMC10314905, “Architecture of a complete Bce-type antimicrobial peptide resistance module” (Nature Communications, 2023):

Assays:
[1] = target: T1, BceAB (isolated transporter) (Bacillus subtilis, UniProt O34697); conditions: MgCl2, 37 °C, 30 min, detergent solubilized
T1 construct: gene bceA

BceAB-S complex [2] = target: T2, BceAB-S complex (Bacillus subtilis, UniProt O34697); parameters: gene bceA; conditions: MgCl2, 37 °C, 30 min, detergent solubilized
BceAB-S complex [3] = target: T2, BceAB-S complex; assay: cryo-EM structure of the complex; assay type: binding; parameters: gene bceA; full-length; petDUET-1, E. coli C41(DE3); LMNG-solubilized; BceA:B:S 2:1:2; with Bacitracin export permease protein BceB; Sensor protein BceS; conditions: 5 mM ATPγS, 5 mM MgCl2, LMNG; bound at Walker A motif and Tyr13 of BceA
[4] = target: the molecule itself; assay: cryo-EM structure; BceAB-S, co-expressed and co-purified complex in LMNG, incubated on ice with 5 mM ATPγS and 5 mM MgCl2 for 30 min before freezing
[5] = target: T3, BceAB ABC transporter (BceA2:BceB1) (B. subtilis, UniProt O34697 2-253; O34741 1-646); assay: cryo-EM structure; nucleotide-free BceAB-S, co-expressed and co-purified complex in LMNG at ~7 mg/mL; Titan Krios, K3; conditions: both partners purified
T3 construct: BceA of Bacillus subtilis, as m1; BceB of Bacillus subtilis, as m2; The construct for isolated BceAB (without BceS) is not described here; also called BceAB transporter; isolated BceAB; source: E. coli C41(DE3), co-expressed (with or without BceS), purified (LMNG, Co3+-Talon, Superdex 200); not shown: His6, N-terminal, kept; copies: 2 + 1
T3 sequence 1: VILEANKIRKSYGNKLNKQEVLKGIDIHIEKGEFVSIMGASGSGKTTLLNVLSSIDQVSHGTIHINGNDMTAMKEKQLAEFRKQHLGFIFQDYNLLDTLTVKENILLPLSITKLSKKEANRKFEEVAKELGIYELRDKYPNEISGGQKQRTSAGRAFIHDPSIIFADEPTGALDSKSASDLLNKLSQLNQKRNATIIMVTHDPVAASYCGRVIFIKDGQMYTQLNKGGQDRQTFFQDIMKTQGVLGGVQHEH
T3 sequence 2: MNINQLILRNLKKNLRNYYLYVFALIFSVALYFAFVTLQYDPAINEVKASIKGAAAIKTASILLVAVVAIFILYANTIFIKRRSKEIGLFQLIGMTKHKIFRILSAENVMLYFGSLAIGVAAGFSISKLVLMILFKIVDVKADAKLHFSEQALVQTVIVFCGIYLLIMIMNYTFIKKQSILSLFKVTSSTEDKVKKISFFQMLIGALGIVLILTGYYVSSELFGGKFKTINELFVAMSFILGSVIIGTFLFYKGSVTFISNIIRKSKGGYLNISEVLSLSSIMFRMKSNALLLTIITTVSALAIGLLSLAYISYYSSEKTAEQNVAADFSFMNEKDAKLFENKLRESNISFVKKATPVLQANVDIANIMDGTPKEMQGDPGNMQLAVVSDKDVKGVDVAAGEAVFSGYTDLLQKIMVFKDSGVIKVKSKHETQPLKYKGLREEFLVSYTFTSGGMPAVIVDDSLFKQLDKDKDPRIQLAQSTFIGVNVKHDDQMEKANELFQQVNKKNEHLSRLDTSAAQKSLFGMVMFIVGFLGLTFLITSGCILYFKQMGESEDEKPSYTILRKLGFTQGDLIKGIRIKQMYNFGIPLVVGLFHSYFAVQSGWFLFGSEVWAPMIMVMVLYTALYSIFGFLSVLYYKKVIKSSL

[6] = target: the molecule itself; assay: as above

T2 sequence (O34697 whole entry, one chain of several): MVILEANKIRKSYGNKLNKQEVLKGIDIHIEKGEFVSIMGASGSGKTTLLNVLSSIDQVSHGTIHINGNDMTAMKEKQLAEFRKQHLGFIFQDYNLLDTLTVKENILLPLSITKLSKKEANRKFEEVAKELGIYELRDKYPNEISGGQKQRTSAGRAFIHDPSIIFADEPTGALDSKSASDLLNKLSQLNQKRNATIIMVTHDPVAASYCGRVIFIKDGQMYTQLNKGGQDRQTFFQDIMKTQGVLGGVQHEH
T1 sequence (O34697 whole entry, one chain of several): as above

## Nc1ncnc2c1ncn2[C@@H]1O[C@H](COP(=O)(O)OP(=O)(O)OP(=O)(O)O)[C@@H](O)[C@H]1O [ATP]
[1]
  colorimetric phosphate-release ATPase assay: significantly reduced maximal ATPase activity compared to the isolated BceAB transporter
BceAB-S complex [2]
  colorimetric phosphate-release ATPase assay: The BceAB-S complex displayed significantly reduced maximal ATPase activity

## Nc1ncnc2c1ncn2[C@@H]1O[C@H](COP(=O)(O)OP(=O)(O)OP(O)(O)=S)[C@@H](O)[C@H]1O [ATPγS]
BceAB-S complex [3]
  cryo-EM structure of the complex: ATPγS engages the Walker-A motif and Tyr13 in the A-loop of BceA

B1: BceA, ATPase (nucleotide binding domain) subunit of the ABC transporter BceAB (natural protein, B. subtilis)
chain: T3 sequence 1
notes: BceA of Bacillus subtilis; gene PCR amplified from B. subtilis genomic DNA together with the overlapping bceB gene; Two copies of BceA stand in the BceAB-S complex (BceA:B:S 2:1:2); No cleavage of the His tag is told; also called BceA NBDs; BceA subunits; not shown: His6, N-terminal, kept
[4]
  binding result: binds

B2: BceS sensor histidine kinase (natural protein, B. subtilis, UniProt O35044 1-334, looked up)
chain: MIKAFLIERRSWIAAFLFQQALMLFIAFVDPSISFGNVLYMVYLCILFFIIFLWFRYRKETAFYKSLKTWENNLDVTAINEPETPFEAMVERSIAGQTEHLKQTAARHRLALENEKDELMAWIHEVKTPLTAMHLIIDRMEEKALKSQLSYEWLRIHLLLDQQLHQKRISFIENDLSVEFIQLQPLIFKEIKDLQSWCIQKGIGFDIQLEAKEVLSDAKWLAFIIRQLLTNAVKYSEASEIEIKSFQKGEQTQLQVKDCGRGIDPKDVPRIFDKGFTSTTDHHDQASTGMGLYLAKKAAAPLLIHIDVESEFGAGTVFTLTFPIRNQFEHVISV
notes: BceS of Bacillus subtilis; gene PCR amplified from B. subtilis genomic DNA; Dimer in the BceAB-S complex; also called BceS kinase; BceS dimer
[5]
  stoichiometry N: 2 BceS per BceAB (BceA2:BceB1)
[6]
  stoichiometry N: 2
